{
  "source": "ChEMBL document CHEMBL5614388",
  "about": "“FLT3-PROTACs for combating AML resistance: Analytical overview on chimeric agents developed, challenges, and future perspectives” (Eur J Med Chem, 2024)",
  "key": {"MOLM-13": {"tested_on": "MOLM-13", "test": "Antiproliferative activity against human MOLM-13 cells assessed as reduction in cell viability incubated for 48 hrs by MTS assay", "format": "functional, cell-based", "details": "MOLM-13, 48 h"}, "MV4-11 [1]": {"tested_on": "MV4-11", "test": "Antiproliferative activity against human MV4-11 cells assessed as reduction in cell viability incubated for 48 hrs by MTS assay", "format": "functional, cell-based", "details": "MV4-11, 48 h"}, "BaF3 [2]": {"tested_on": "BaF3", "test": "Antiproliferative activity against mouse BaF3 cells expressing FLT3-ITD D835Y mutant incubated for 48 hrs by CCK8 assay", "format": "functional, cell-based", "details": "BaF3, 48 h"}, "BaF3 [3]": {"tested_on": "BaF3", "test": "Antiproliferative activity against mouse BaF3 cells expressing FLT3-ITD F691L mutant incubated for 48 hrs by CCK8 assay", "format": "functional, cell-based", "details": "BaF3, 48 h"}, "BaF3 [4]": {"tested_on": "BaF3", "test": "Antiproliferative activity against mouse BaF3 cells expressing FLT3-ITD mutant incubated for 48 hrs by CCK8 assay", "format": "functional, cell-based", "details": "BaF3, 48 h"}, "MV4-11 [5]": {"tested_on": "MV4-11", "test": "Antiproliferative activity against human MV4-11 cells assessed as reduction in cell growth", "format": "functional, cell-based"}, "MV4-11 [6]": {"tested_on": "MV4-11", "test": "Antiproliferative activity against human MV4-11 cells assessed as reduction in cell growth incubated for 48 hrs by CCK-8 assay", "format": "functional, cell-based", "details": "MV4-11, 48 h"}, "MV4-11 [7]": {"tested_on": "MV4-11", "test": "Antiproliferative activity against human MV4-11 cells assessed as reduction in cell viability measured after 48 hrs by CellTiter-Glo assay", "format": "functional, cell-based", "details": "MV4-11, 48 h"}, "Kasumi 1": {"tested_on": "Kasumi 1", "test": "cells", "details": "Homo sapiens, Kasumi 1, 72 h", "description": "Antiproliferative activity against human Kasumi 1 cells assessed as reduction in cell viability incubated for 72 hrs by Cell-titer glo luminescent assay"}, "MV4-11 [8]": {"tested_on": "MV4-11", "test": "cells", "details": "Homo sapiens", "description": "Antiproliferative activity against human MV4-11 cells assessed as reduction in cell viability by WAT-8 reagent based analysis"}},
  "data": [
    {"smiles": "CCCNc1nc(Nc2ccc(C#N)cc2)ncc1C#CCCCNC(=O)[C@H](C)N(C)C(=O)/C=C/CN(C)C", "note": "[FF-10101]", "values": [
      {"measurement": "IC50", "setting": "MOLM-13", "result": 0.83, "unit": "nM"},
      {"measurement": "IC50", "setting": "MV4-11 [1]", "result": 1.1, "unit": "nM"},
      {"measurement": "IC50", "setting": "BaF3 [2]", "result": 11.1, "unit": "nM"},
      {"measurement": "IC50", "setting": "BaF3 [3]", "result": 14.5, "unit": "nM"},
      {"measurement": "IC50", "setting": "BaF3 [4]", "result": 1.8, "unit": "nM"}
    ]},
    {"smiles": "O=C(CCCCCCC(=O)Nc1cc(-c2ccc3ncn(Cc4c(Cl)cccc4Cl)c3c2)[nH]n1)NO", "values": [
      {"measurement": "IC50", "setting": "MV4-11 [5]", "result": 92, "unit": "nM"}
    ]},
    {"smiles": "CCc1nc(C(N)=O)c(Nc2ccc(N3CCN(CN4CCN(c5ccc6c(c5)C(=O)N(C5CCC(=O)NC5=O)C6=O)CC4)CC3)c(OC)c2)nc1NC1CCOCC1", "note": "(stereo not given)", "values": [
      {"measurement": "IC50", "setting": "MV4-11 [6]", "result": 1.66, "unit": "nM"}
    ]},
    {"smiles": "CC(C)(C)c1cc(NC(=O)Nc2ccc(-c3cn(CCCCc4cn(CCCCC(=O)Nc5cccc6c5CN(C5CCC(=O)NC5=O)C6=O)nn4)c4ncnc(N)c34)cc2)no1", "note": "(stereo not given)", "values": [
      {"measurement": "IC50", "setting": "MV4-11 [7]", "result": 4.83, "unit": "nM"}
    ]},
    {"smiles": "Cc1[nH]c(/C=C2\\C(=O)Nc3ccc(F)cc32)c(C)c1C(=O)NCCCCCCNc1cccc2c1C(=O)N(C1CCC(=O)NC1=O)C2=O", "note": "(stereo not given)", "values": [
      {"measurement": "EC50", "setting": "Kasumi 1", "result": 21.3, "unit": "nM"}
    ]},
    {"smiles": "CCc1nc(C(N)=O)c(Nc2ccc(N3CCC(N4CCN(C)CC4)CC3)c(OC)c2)nc1NC1CCOCC1", "note": "[GILTERITINIB]", "values": [
      {"measurement": "IC50", "setting": "MV4-11 [8]", "result": 0.9, "unit": "nM"}
    ]}
  ]
}
